Experimental data: US8178709B2, “Iron preparation suitable for pharmaceutical formulation and process for the preparation thereof” (BioLink Life Sciences, Inc., priority 2009, dated 2012)

Key:
[1] = molecular target: human apotransferrin (Homo sapiens, UniProt P02787); assay: Iron binding to human apotransferrin (method of Bates, absorbance at 470 nm); settings: Tris buffer with bicarbonate, pH 7.5, 25.0° C., FIG. 1
From the text: The major iron transport pool in human serum is iron bound to apotransferrin, an 80 kDa bilobal protein with two iron binding sites. The function of apotransferrin is: i) to bind iron and as transferrin (iron-laden apotransferrin) move iron from storage depots (ferritin) to various cell receptors; ii) to prevent iron from engaging in redox reactions which produce toxic free radicals; and iii) to prevent bacterial acquisition of this essential nutrient. Consequently, the best way to introduce iron into the normal metabolic pool is to deliver it to apotransferrin. […] Therefore, we measured the kinetics of Fe-transferrin formation from iron preparations of the invention and compared the kinetics to the kinetics of Fe-transferrin formation from commercial soluble ferric pyrophosphate and ferric sulfate-NTA complex at identical conditions according to the method of Bates, et al. [Bates, G. W., Billups, C. […]
The following test articles were evaluated in this study: Products 2-1 through 2-4 (described in Example 2); soluble ferric pyrophosphate (SFP), lot 112362 manufactured by The Dr. Paul Lohmann Chemical Company, Emmerthal, Germany (“Lohmann”); and ferric sulfate:NTA chelate.
Experimental Details. […] The binding of iron to apotransferrin was monitored at 470 nm, the absorption maximum for ferric transferrin. […]

[2] = system: macrophages; settings: ferric citrate-treated macrophages; cited from earlier work

Sequence of human apotransferrin (P02787 20-698): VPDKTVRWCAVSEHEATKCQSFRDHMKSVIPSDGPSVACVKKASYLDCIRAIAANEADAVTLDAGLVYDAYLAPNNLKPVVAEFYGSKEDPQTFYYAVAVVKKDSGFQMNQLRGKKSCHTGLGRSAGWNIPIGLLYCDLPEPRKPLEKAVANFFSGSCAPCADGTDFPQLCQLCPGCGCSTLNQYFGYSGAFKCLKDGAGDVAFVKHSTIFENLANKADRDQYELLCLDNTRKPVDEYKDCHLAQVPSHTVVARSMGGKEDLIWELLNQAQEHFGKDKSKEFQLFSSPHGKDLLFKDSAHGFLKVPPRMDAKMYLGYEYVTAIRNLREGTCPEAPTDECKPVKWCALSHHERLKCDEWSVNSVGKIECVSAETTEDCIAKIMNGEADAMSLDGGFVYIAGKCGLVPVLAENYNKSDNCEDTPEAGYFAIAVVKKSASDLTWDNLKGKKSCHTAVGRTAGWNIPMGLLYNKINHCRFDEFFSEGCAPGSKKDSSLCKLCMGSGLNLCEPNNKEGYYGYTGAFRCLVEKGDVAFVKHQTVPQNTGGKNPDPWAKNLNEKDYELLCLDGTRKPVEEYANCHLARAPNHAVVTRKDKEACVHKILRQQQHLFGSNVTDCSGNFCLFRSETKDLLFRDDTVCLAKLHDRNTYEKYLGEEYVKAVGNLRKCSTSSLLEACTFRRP

Substance | Extent (efficiency) of iron uptake by human apotransferrin [1] | Level of lipid peroxidation [2] | Phagocytic capacity [2]
ferric sulfate:NTA chelate [ferric sulfate-NTA chelate] | near quantitative efficiency |  | 
soluble ferric pyrophosphate | near quantitative efficiency |  | 
ferric citrate |  | significantly elevated | inhibited in a dose-related manner
